Experimental data published in patent publication US8987287B2, “Spirocyclic morphinans and their use” (Purdue Pharma L.P., priority 2012, dated 2015).

How the values were obtained:
μ-opioid receptor = μ-opioid receptor (Homo sapiens (Human), UniProt P35372); assay: μ-opioid receptor [35S]GTPγS functional assay, U-2 OS cells; type: biochemical; conditions: for Emax: relative to DAMGO, U-2 OS cells
Experimental: μ-Opioid Receptor Functional Assay Procedures: [^35S]GTPγS functional assays were conducted using freshly thawed μ-receptor membranes prepared in-house from a cell line expressing recombinant μ opioid receptor in a HEK-293, CHO or U-2 OS cell background, or purchased from a commercial source (Perkin Elmer, Shelton, Conn.; or DiscovRx, Fremont, Calif.). Assay reactions were prepared by sequentially adding the following reagents to binding buffer (100 mM NaCl, 10 mM MgCl2, 20 mM HEPES, pH 7.4) on ice (final concentrations indicated): membrane protein (0.026 mg/mL), saponin ([…]), GDP ([…]) and [^35S]GTPγS (0.20 nM; Perkin Elmer, Shelton, Conn.). The prepared membrane solution (190 μl/well) was transferred to 96-shallow well polypropylene plates containing 10 μl of 20× concentrated stock solutions of the agonist [D-Ala^2, N-methyl-Phe^4 Gly-ol^5]-enkephalin (DAMGO) prepared in dimethyl sulfoxide (DMSO). Plates were incubated for 30 min at about 25° C. with shaking. Reactions were terminated by rapid filtration onto 96-well Unifilter GF/B filter plates (Perkin Elmer, Shelton, Conn.) using a 96-well tissue harvester (Perkin Elmer, Shelton, Conn.) followed by three filtration washes with 200 μl of ice-cold wash buffer (10 mM NaH2PO4, 10 mM Na2HPO4, pH 7.4). Filter plates were subsequently dried at 50° C. for 2-3 hours. BetaScint scintillation cocktail (Perkin Elmer, Shelton, Conn.) was added (50 μl/well) and plates were counted using a Packard Top-Count for 1 min/well. Data were analyzed using the sigmoidal dose-response curve fitting functions in GraphPad PRISM v. 3.0, or an in-house function for non-linear, sigmoidal dose-response curve-fitting.
μ-Opioid Receptor Functional Data: μ GTP EC50 is the concentration of a compound providing 50% of the maximal response for the compound at a μ-opioid receptor.
μ GTP Emax (%) is the maximal effect elicited by a compound relative to the effect elicited by DAMGO, a standard μ agonist. Generally, the μ GTP Emax (%) value measures the efficacy of a compound to treat or prevent pain or other Conditions.
(§1) The following TABLE 3 provides results on the activity response of certain Compounds of the Invention at the μ- and κ-opioid receptors determined as described above using U-2 OS cells.

κ opioid receptor = κ opioid receptor (Homo sapiens (Human), UniProt P41145); assay: κ-opioid receptor [35S]GTPγS functional assay, U-2 OS cells; type: biochemical; conditions: for Emax: relative to U69,593, U-2 OS cells
Experimental: κ-Opioid Receptor Functional Assay Procedures: Functional [^35S]GTPγS binding assays were conducted as follows. κ opioid receptor membrane solution was prepared by sequentially adding final concentrations of 0.026 μg/μl κ membrane protein (in-house), 10 μg/mL saponin, 3 μM GDP and 0.20 nM [^35S]GTPγS to binding buffer (100 mM NaCl, 10 mM MgCl2, 20 mM HEPES, pH 7.4) on ice. The prepared membrane solution (190 μl/well) was transferred to 96-shallow well polypropylene plates containing 10 μl of 20× concentrated stock solutions of agonist prepared in DMSO. Plates were incubated for 30 min at a temperature of about 25° C. with shaking. Reactions were terminated by rapid filtration onto 96-well Unifilter GF/B filter plates (Perkin Elmer, Shelton, Conn.) using a 96-well tissue harvester (Packard) and followed by three filtration washes with 200 μl ice-cold binding buffer (10 mM NaH2PO4, 10 mM Na2HPO4, pH 7.4). Filter plates were subsequently dried at 50° C. for 2-3 hours. Fifty μl/well scintillation cocktail (Perkin Elmer, Shelton, Conn.) was added and plates were counted in a Packard Top-Count for 1 min/well.
κ-Opioid Receptor Functional Data: κ GTP EC50 is the concentration of a compound providing 50% of the maximal response for the compound at a κ receptor.
κ GTP Emax (%) is the maximal effect elicited by a compound relative to the effect elicited by U69,593.
as §1

Row | SMILES | EC50 (μ-opioid receptor) | Emax (μ-opioid receptor) | EC50 (κ opioid receptor) | Emax (κ opioid receptor)
1 | CCN1C(=O)N(CC)[C@]2(CC[C@@]3(O)[C@H]4Cc5ccc(O)cc5[C@@]3(CCN4CC3CC3)C2)C1=O [Compound 46, (4S,4b′R,8a′S,9′R)-11′-(cyclopropylmethyl)-1,3-diethyl-3′,8a′-dihydroxy-8′,8a′,9′,10′-tetrahydro-5′H,7′H-spiro[imidazolidine-4,6′-[9,4b](epiminoethano)phenantrene]-2,5-dione] | 0.00174 ± 0.00022 µM | 10.7 ± 0.33% | 0.00157 ± 0.00019 µM | 96.7 ± 3.67%
2 | COc1ccc2c(c1)[C@]13CCN(C/C=C/c4ccccc4)[C@H](C2)[C@]1(O)CC[C@@]1(C3)NC(=O)NC1=O [Compound 24, (4bR,4′S,8aS,9R)-11-cinnamyl-8a-hydroxy-3-methoxy-5,7,8,8a,9,10-hexahydrospiro[9,4b-(epiminoethano)phenanthrene-6,4′-imidazolidine]-2′,5′-dione] | > 20 µM | 8% | > 20 µM | 29.7 ± 1.86%
3 | N#CCN1C(=O)NC(=O)[C@@]12CC[C@@]1(O)[C@H]3Cc4ccc(O)cc4[C@@]1(CCN3CC1CC1)C2 [Compound 68, 2-((4bR,4′S,8aS,9R)-11-(cyclopropylmethyl)-3,8a-dihydroxy-2,5-dioxo-5,7,8,8a,9,10-hexahydrospiro[9,4b-(epiminoethano)phenanthrene-6,4′-imidazolidin]-3′-yl)acetonitrile] | 0.00563 ± 0.00174 µM | 16 ± 1.15% | 0.00706 ± 0.00153 µM | 108 ± 6.89%
4 | COc1ccc2c(c1)[C@]13CCN(CC4CCOCC4)[C@H](C2)[C@]1(O)CC[C@@]1(C3)NC(=O)NC1=O [Compound 25, (4bR,4′S,8aS,9R)-8a-hydroxy-3-methoxy-11-((tetrahydro-2H-pyran-4-yl)methyl)-5,7,8,8a,9,10-hexahydrospiro[9,4b-(epiminoethano)phenanthrene-6,4′-imidazolidine]-2′,5′-dione] | > 20 µM | 6.67 ± 0.88% | > 20 µM | 10 ± 4.6%
5 | O=C1NC(=O)[C@@]2(CC[C@@]3(O)[C@H]4Cc5ccc(O)cc5[C@@]3(CCN4CC3CC3)C2)N1CC1CC1 [Compound 65, (4S,4b′R,8a′S,9′R)-3,11′-bis(cyclopropylmethyl)-3′,8a′-dihydroxy-8′,8a′,9′,10′-tetrahydro-5′H,7′H-spiro[imidazolidine-4,6′-[9,4b](epiminoethano)phenantrene]-2,5-dione] | > 20 µM | 2% | 0.0364 ± 0.00708 µM | 92.3 ± 1.45%
6 | CCN1C(=O)NC(=O)[C@@]12CC[C@@]1(O)[C@H]3Cc4ccc(O)cc4[C@@]1(CCN3C)C2 [Compound 69, (4S,4b′R,8a′S,9′R)-3-ethyl-3′,8a′-dihydroxy-11′-methyl-8′,8a′,9′,10′-tetrahydro-5′H,7′H-spiro[imidazolidine-4,6′-[9,4b](epiminoethano)phenantrene]-2,5-dione] | 0.0436 ± 0.00297 µM | 97.3 ± 1.45% | 0.866 ± 0.0946 µM | 110 ± 8.5%
7 | COc1ccc2c(c1)[C@]13CCN(CCC(F)(F)F)[C@H](C2)[C@]1(O)CC[C@@]1(C3)NC(=O)NC1=O [Compound 17, (4bR,4′S,8aS,9R)-8a-hydroxy-3-methoxy-11-(3,3,3-trifluoropropyl)-5,7,8,8a,9,10-hexahydrospiro[9,4b-(epiminoethano)phenanthrene-6,4′-imidazolidine]-2′,5′-dione] | > 20 µM | 18.5 ± 6.14% | > 20 µM | 83.7 ± 6.69%
8 | COc1ccc2c(c1)[C@]13CCN(CCCC(F)(F)F)[C@H](C2)[C@]1(O)CC[C@@]1(C3)NC(=O)NC1=O [Compound 18, (4bR,4′S,8aS,9R)-8a-hydroxy-3-methoxy-11-(4,4,4-trifluorobutyl)-5,7,8,8a,9,10-hexahydrospiro[9,4b-(epiminoethano)phenanthrene-6,4′-imidazolidine]-2′,5′-dione] | > 20 µM | 20.7 ± 4.81% | > 20 µM | 86 ± 7.21%
9 | O=C1NC(=O)[C@@]2(CC[C@@]3(O)[C@H]4Cc5ccc(O)cc5[C@@]3(CCN4CC3CC3)C2)N1Cc1ccccc1 [Compound 67, (4bR,4′S,8aS,9R)-3′-benzyl-11-(cyclopropylmethyl)-3,8a-dihydroxy-5,7,8,8a,9,10-hexahydrospiro[9,4b-(epiminoethano)phenanthrene-6,4′-imidazolidine]-2′,5′-dione] | 0.00938 ± 0.00076 µM | 20% | 0.0284 ± 0.00848 µM | 115 ± 4.84%
10 | COc1ccc2c(c1)[C@]13CCN(CCc4ccccc4)[C@H](C2)[C@]1(O)CC[C@@]1(C3)NC(=O)NC1=O [Compound 20, (4bR,4′S,8aS,9R)-8a-hydroxy-3-methoxy-11-phenethyl-5,7,8,8a,9,10-hexahydrospiro[9,4b-(epiminoethano)phenanthrene-6,4′-imidazolidine]-2′,5′-dione] | 0.664 ± 0.113 µM | 105 ± 1.23% | > 20 µM | 75.7 ± 11.5%
11 | O=C1N[C@]2(CC[C@@]3(O)[C@H]4Cc5ccc(O)cc5[C@@]3(CCN4CC3CC3)C2)C(=O)N1Cc1ccc(O)cc1 [Compound 47, (4S,4b′R,8a′S,9′R)-11′-(cyclopropylmethyl)-3′,8a′-dihydroxy-1-(4-hydroxybenzyl)-8′,8a′,9′,10′-tetrahydro-5′H,7′H-spiro[imidazolidine-4,6′-[9,4b](epiminoethano)-phenantrene]-2,5-dione] | 0.00466 ± 0.00089 µM | 49 ± 1.53% | 0.00121 ± 0.00011 µM | 104 ± 3.67%
12 | O=C1NC(=O)[C@@]2(CC[C@@]3(O)[C@H]4Cc5ccc(O)cc5[C@@]3(CCN4CC3CCCCC3)C2)N1 [Compound 27, (4bR,4′S,8aS,9R)-11-(cyclohexylmethyl)-3,8a-dihydroxy-5,7,8,8a,9,10-hexahydrospiro[9,4b-(epiminoethano)phenanthrene-6,4′-imidazolidine]-2′,5′-dione] | 12.8 ± 3.86 µM | 21.3 ± 1.86% | 2.08 ± 0.406 µM | 33.3 ± 3.53%
13 | O=C1NC(=O)[C@@]2(CC[C@@]3(O)[C@H]4Cc5ccc(O)cc5[C@@]3(CCN4CCC(F)(F)F)C2)N1 [Compound 33, (4bR,4′S,8aS,9R)-3,8a-dihydroxy-11-(3,3,3-trifluoropropyl)-5,7,8,8a,9,10-hexahydrospiro[9,4b-(epiminoethano)phenanthrene-6,4′-imidazolidine]-2′,5′-dione] | 0.272 ± 0.018 µM | 39.7 ± 1.86% | 0.393 ± 0.0135 µM | 98.3 ± 1.45%
14 | CC(C)CCN1CC[C@]23C[C@]4(CC[C@@]2(O)[C@H]1Cc1ccc(O)cc13)NC(=O)NC4=O [Compound 28, (4bR,4′S,8aS,9R)-3,8a-dihydroxy-11-isopentyl-5,7,8,8a,9,10-hexahydrospiro[9,4b-(epiminoethano)phenanthrene-6,4′-imidazolidine]-2′,5′-dione] | 0.153 ± 0.0201 µM | 113 ± 2.78% | 0.604 ± 0.112 µM | 88 ± 4.36%
15 | O=C1NC(=O)[C@@]2(CC[C@@]3(O)[C@H]4Cc5ccc(O)cc5[C@@]3(CCN4CCc3ccccc3)C2)N1 [Compound 35, (4bR,4′S,8aS,9R)-3,8a-dihydroxy-11-phenethyl-5,7,8,8a,9,10-hexahydrospiro[9,4b-(epiminoethano)phenanthrene-6,4′-imidazolidine]-2′,5′-dione] | 0.00123 ± 9.3e-05 µM | 104 ± 3.51% | 0.27 ± 0.0441 µM | 84 ± 1.53%
16 | CCN1CC[C@]23C[C@]4(CC[C@@]2(O)[C@H]1Cc1ccc(O)cc13)NC(=O)NC4=O [Compound 29] | 1.26 ± 0.206 µM | 83.8 ± 0.8% | 0.25 ± 0.095 µM | 102 ± 2.19%
